Reference: a melting point compilation (Tetko et al.; mined from patent text by program, amines drawn as free bases though some values may be those of a salt)

melting point [°C] | SMILES
104 to 110 | Cc1nc2c(OCc3ccccc3)nccn2c1C
142 | O=C1c2ccccc2C(=O)N1Cc1ccccc1-c1noc2ccccc12
157 to 159 | COc1ccc(CN(Cc2ccc(OC)cc2)c2nc(Cl)c3ncn(Cc4ccc(OC)cc4)c3n2)cc1
250 to 251 | Cn1ncc(/C=C/C(=O)Nc2ccc(CNC(=O)c3ccccc3)cc2)c1-c1ccc(F)cc1
192 to 194 | CCOC(=O)CN1CCN(c2cc3c(cc2F)c(=O)c(C(=O)O)cn3C2CC2)CC1
74 to 77 | O=C(NC1CC1)c1nccnc1Oc1cccc(C(F)(F)F)c1
73 | COc1ccc(-c2ccc(C)cn2)c(F)c1F
274 to 276 | Fc1cc(Cn2ccnc2)cc2c1Cc1c(-c3ccsc3)n[nH]c1-2
45 to 47 | O=C(c1ccc(F)cc1)C1CCN(CCO)CC1
228 to 231 | CC(C)(C)c1nn(-c2c(Cl)cc(C(F)(F)F)cc2Cl)c(N)c1Br
138 to 139 | CC(F)c1nc2ncnn2c(NC2CCC(C(C)(C)C)CC2)c1Cl (configuration not stated)
54 to 55 | C=Cc1nc(-c2cn(C)c3ccccc23)no1
197 | CC(C)CC(=O)N[C@H]1CC[C@H](CCN2CCC(c3cccc4c3CCO4)CC2)CC1
113 to 115 | CCS(=O)(=O)N(C)Cc1ccc2[nH]cc(CCCN3CCN(c4ncncc4OC)CC3)c2c1
176 | Clc1ccc(N2CC=C(COc3ccc(C4=NCCO4)cc3)CC2)nn1
74 to 76 | Cc1cc(C)cc(OCC(O)CCCl)c1 (configuration not stated)
105 | O=C(NCc1cccs1)C1CCCCC1
62 to 63 | N=C1C=CC=CC1Cc1cccc2c1NCC2 (configuration not stated)
226 to 227 | O=C(Nc1cc(-c2c(-c3ccc(F)cc3)nc3cccnn23)ccn1)c1ccncc1
55 to 57 | COc1ccc2c(c1)CC(Nc1ccc(OCc3ccccc3)cc1)C2 (configuration not stated)
146 | COC(=O)c1cccc(-c2ncc(N=CN(C)C)cn2)c1
30 to 32 | CCCCCCCOc1cc(F)nc(N)n1
244 to 245 | CCCCc1sc(C(=O)O)c2c1-c1nn(C)cc1CC2
33 to 35 | CCOC(=O)c1ccc(Cl)c(Cl)c1

melting point [°C] | SMILES
156 | CCOc1nc2cc(C)nn2c2ccncc12
216 | c1ccc(-c2ncc(-c3cnc[nH]3)cn2)cc1
146 to 148 | COc1cc2c(=O)n(C)c(-c3ccc(OC4CCN(C5CCC5)CC4)cc3)nc2cn1
206 to 208 | Cc1ccc(-c2ccc(C(=O)Nc3ccc4cc(CN5CCCC5)cnc4c3)cc2)cc1
187 to 188 | O=C(NO)c1ccc(CNC(=O)c2[nH]c(-c3ccccc3)cc2-c2ccc(Cl)c(Cl)c2)cc1
174 to 177 | COC(=O)COc1ccc2cc(-c3csc(Cc4c(Cl)cccc4Cl)n3)ccc2c1
56 to 58 | CCCCCCCCCCCCCCCCCC(=O)NCCOC(=O)C1=CC(C(C)(C)C)C(O)(C(C)(C)C)C=C1 (configuration not stated)
165 to 166 | Cc1c(C)c2c(c(C)c1NC(=O)C(O)C(C)(C)C)C(c1ccc(C(C)C)cc1)CO2 (configuration not stated)
183 to 185 | CC(C)(C)CC(C)(C)c1ccc(Oc2cc3nc(-c4ccccc4)oc3cc2[N+](=O)[O-])cc1
67 to 69 | COC(=O)Cc1ccc2c(=O)c3ccccc3ccc2c1
148 | N#CC(=NOS(=O)(=O)c1ccc(O)cc1)c1ccccc1
99 to 104 | CCCCc1nc(C#N)c(C#N)n1Cc1ccc(N)cc1
250 | CCC1=C([N+](=O)[O-])C(c2cccc(Cl)c2Cl)c2c[nH]nc2N1 (configuration not stated)
138 to 140 | CCOC(=O)C1=C(C#N)Nc2ccnc(OC(C)C)c2C1c1ccccc1C(F)(F)F (configuration not stated)
173 to 175 | CCNC(=O)NSC(=S)N(C)C
81 to 83 | COc1ccc(NC(=O)CN2CCC(Cc3ccccc3)CC2)cc1
> 300 | CCOC(=O)CC[C@H](NC(=O)c1ccc(C(C)=Cc2cnc3nc(N)nc(N)c3c2)cc1)C(=O)OCC
123 to 124 | CN1CCN(C2=Nc3ccccc3Cc3nccn32)CC1
145 to 147 | CC/C=C/CONC(=O)c1nc(-c2ccc(Cl)c(OC)c2F)cc(N)c1Cl
211 to 212 | CC1(C)OC(=O)Nc2ccc(-c3cncc(Br)c3)cc21
215 to 216 | CC(C)(C)c1cc(-c2nnc(C(N)=S)s2)cc(C(C)(C)C)c1O
258 to 261 | O=c1[nH]c2ccccc2c2c(C(O)CC3CCNCC3)n(-c3ccccc3)nc12 (configuration not stated)
> 300 | NC(=O)c1cc(-c2ccncc2)nnc1Cl
260 | O=C(NC1CCC(CCN2CCN(c3nccc4c3OCC4)CC2)CC1)c1ccc(N2CCS(=O)(=O)CC2)cc1 (configuration not stated)

melting point [°C] | SMILES
167 | Cn1c(N2CCOC(c3nc(-c4ccccc4)no3)C2)nc(-c2ccncn2)cc1=O (configuration not stated)
68 to 69 | CCCCCCCCCCCCCCOc1ccc(CC(=O)O)cc1Cl
118 to 119 | CN(CC#CI)c1nc(CO)cs1
128 to 129 | Cc1oc(COc2ccccc2/C=C/C=C/C#N)nc1-c1ccccc1
100 to 103 | CCN1CCCC(NC(=O)N2CCN(c3ccccc3)CC2)C1 (configuration not stated)
128 to 131 | CC1(C)CC(=O)C(C(=O)Nc2ccc(Cl)c(C(F)(F)F)c2)C(=O)C1
147 | OC(CC1CCNCC1)c1cc(-c2ccccc2)nc2ccccc12 (configuration not stated)
191 to 193 | COc1ccc2cc(-c3csc(-c4ccccc4)n3)ccc2c1
71 to 72 | COc1cc(Cl)c(CO)c(Cl)c1
121 to 122 | CCOC(=O)C(C#N)CCCCCCc1ccc(Cl)cc1 (configuration not stated)
67 to 68 | Cc1nc2cc(C(F)(F)F)ccc2n1-c1ccc(OC(C)CCC(=O)O)cc1 (configuration not stated)
182 to 183 | COc1ccc(C(=O)N2CCCC3=C2CCc2cc(Cl)ccc23)cc1
120 to 122 | COc1cccc(-c2cc(Cl)cc3c2OC(CN)C3)c1OC (configuration not stated)
235 to 237 | CC(O)C1CCC2C3CC=C4CC(O)CC(O)C4(C)C3CCC12C (configuration not stated)
178 to 181 | CCOC(=O)C=Cc1cn(C(=O)OC(C)(C)C)c2cnc(-n3cncn3)cc12
68 to 71 | COC(=O)c1c(F)cc(OCCNC(=O)C2Cc3ccccc3N2S(=O)(=O)c2ccc(-c3cccc(C(F)(F)F)c3)cc2)cc1F (configuration not stated)
108 | COc1ccccc1NC(=O)Nc1nc(Nc2ccccc2-c2ccccc2)nc(N(CCC(=O)O)Cc2ccc(F)cc2)n1
122 | CC(C(=O)O)c1ccc2c(c1)CCc1ccccc1C2=O (configuration not stated)
116 to 118 | COc1ccc(C(=C(CCBr)c2ccccc2)c2ccccc2)cc1
165 to 166 | O=Cc1ccc(F)cc1-c1noc2ccc(F)cc12
191 to 193 | CCCc1nn(CC)c2c(=O)[nH]c(-c3cc(S(=O)(=O)N4CCN(CCO)CC4)ccc3OCC)nc12
114 to 115 | CCCCOc1c(C=O)n(C)c(=O)c2cc(Cl)c(Cl)cc12
134 to 135 | CC(C)(C)c1ccc(Cn2ccc3ccc(-c4ccc(C(F)(F)F)cc4)cc32)cc1
123 to 126 | Nc1c([N+](=O)[O-])cnn1-c1c(F)c(F)c(C(F)(F)F)c(F)c1F

melting point [°C] | SMILES
142 to 151 | CCOC(=O)c1c(C(F)(F)F)nc(C(F)F)c(C(=O)O)c1N
149 to 155 | COc1ccc2[nH]c(S(=O)Cc3c(N)cc(C)c(OC)c3C)nc2c1 (configuration not stated)
160 to 161 | O=Cc1cc(OCCl)c(O)cc1[N+](=O)[O-]
189 | CC(O)c1cc(NC(=O)OC(C)(C)C)ccc1NC(=O)OC(C)(C)C (configuration not stated)
53 | COC(=O)CCSC(SCCC(=O)OC)c1cccc(C=Cc2ccc3ccc(Cl)cc3n2)c1
202 to 204 | NC(=O)c1sc2cncc(Oc3ccc(Cl)cc3)c2c1N
120 | O=C1O[C@H](C(O)O)CCN1Cc1ccccc1
83 to 84 | CCN(CC)CCOCCc1ccc2c(c1)OCO2
205 | CC(=O)N[C@@H](C)COc1cc2oc(-c3ccc(OC[C@H]4CC4(F)F)cc3)nc2cn1
110 to 116 | CCCCCCC1(CCn2ccnc2)SCCS1
114 to 120 | O=C1NC2(CCCC2)CCCC1(Cl)Cl
165 to 166 | Cc1c(C(=O)OCc2ccccc2)sc(NC(=O)c2cccnc2)c1C(=O)OC(C)(C)C
168 | CCCCc1nc(SCC)c(C(=O)O)n1Cc1ccc(C(=O)O)cc1
152 to 153 | NC(=O)c1c(F)ccc(OCC(=O)O)c1F
101 to 102 | COc1ccc(-c2c(Cl)c(CNC(=O)Cn3cncn3)nc3sc4c(c23)CCN(Cc2ccccc2)C4)cc1OC
122 to 123 | COc1ccc2c(c1)c(=O)c(CSC)cn2C
206 to 222 | COc1cc(Nc2c(C#N)cnc3cc4cc(OCCN5CCOCC5)c(OC)cc4cc23)c(Cl)cc1F
98 to 99 | CCCCCN1N=C(c2ccc(OCC)c(OCC)c2)[C@@H]2CCCC[C@@H]2C1=O (relative stereo)
210 to 214 | O=C(O)c1cc2ccnc(Cl)c2[nH]1
237 to 238 | CNC(=O)c1cc2c(nc(C)n2C)c2c1CCC1(Cc3ccccc3C1)N2
74 to 77 | CCCCc1nc(-n2cccc2)c(C(=O)OCC)[nH]1
308 to 310 | COc1ccc(C2C3=C(COC3=O)Nc3ccc4nn[nH]c4c32)c(F)c1 (configuration not stated)
108 to 110 | O=CC1=Cc2cc(-c3ccccc3)ccc2OC1
264 to 265 | COc1ccc(C(=O)NCc2ccccc2)c2c1oc1ccc(NC(C)=O)cc12

SMILES | melting point [°C]
COc1cc(C(=O)Nc2c(C)cc3cn[nH]c3c2C(=O)NC(C)C)n(-c2ncccc2Cl)n1 | 148 to 151
CN(C(=O)On1cccn1)c1ccccc1 | 63 to 67
CN1CCC(C)(O)C(C)(C)C1Cc1ccccc1 (configuration not stated) | 95 to 103
CC(C)(C)CC1(C)CC(C)(C)c2ccc(O)cc21 (configuration not stated) | 102
OC(CNCc1ccccc1)c1ccc(OCc2ccccc2)c(F)c1 (configuration not stated) | 113 to 114
CNC(=O)c1cc(O)cc2c1N(C)C1N(C)CCC21C (configuration not stated) | 202 to 204
